Literature values, collected in patent US20120195848A1, “STRONTIUM-CONTAINING BIOACTIVE BONE CEMENT” (The University of Hong Kong, priority 2011, published 2012).
Like-named read-outs stand apart in the source and are kept apart here.

SMILES: O=S(=O)([O-])[O-].[Ba+2] [BaSO4, reference compound]
- dissolution rate (20° C.): 0.0002448 g/100 mL

SMILES: O=S(=O)([O-])[O-].[Sr+2] [SrSO4, strontium sulfate]
- dissolution rate (25° C.): 0.0135 g/100 mL

SMILES: O=C([O-])[O-].[Sr+2] [SrCO3, strontium carbonate]
- dissolution rate (18° C.): 0.0011 g/100 ml
